Laboratory results published in ChEMBL document CHEMBL3885881, “DrugMatrix”.

Species on record: Rattus norvegicus
Assay: DrugMatrix - Regimen: Daily Repeat
Type: toxicity, organism-based, Sprague-Dawley
Parameters: regimen Daily Repeat, gender Male, age 6-8 weeks
Details: in vivo, iv, vehicle 100 % SALINE; for ABSOLUTE BASOPHIL / ABSOLUTE EOSINOPHIL / ABSOLUTE LYMPHOCYTE / ABSOLUTE MONOCYTE / ABSOLUTE SEGMENTED NEUTROPHIL / BASOPHIL / EOSINOPHIL / ERYTHROCYTE COUNT / HEMATOCRIT / HEMOGLOBIN / LEUKOCYTE COUNT / LYMPHOCYTE / MEAN CORPUSCULAR HEMOGLOBIN / MEAN CORPUSCULAR HEMOGLOBIN CONCENTRATION / MEAN CORPUSCULAR VOLUME / MONOCYTE / NEUTROPHIL / NUCLEATED RED BLOOD CELLS / PLATELET COUNT: tissue Blood; for ALANINE AMINOTRANSFERASE / ALBUMIN / ALKALINE PHOSPHATASE / ASPARTATE AMINOTRANSFERASE / BLOOD UREA NITROGEN / CARBON DIOXIDE / CHLORIDE / CHOLESTEROL / CREATINE PHOSPHOKINASE / CREATININE / GLUCOSE / LACTATE DEHYDROGENASE / LIPASE / PHOSPHORUS / POTASSIUM / SODIUM / TOTAL BILIRUBIN / TOTAL PROTEIN / URIC ACID: tissue Plasma
[1] = 100 mg/kg, 72 h, dose level Low, time 3 day
[2] = 100 mg/kg, 120 h, dose level Low, time 5 day
[3] = 755 mg/kg, 72 h, dose level High, time 3 day
[4] = 755 mg/kg, 120 h, dose level High, time 5 day

Structure (SMILES): O=S(=O)([O-])CCS.[Na+] [MESNA]
- ABSOLUTE BASOPHIL [1]: 0 CELLS/uL
- ABSOLUTE EOSINOPHIL [1]: 43.67 CELLS/uL
- ABSOLUTE LYMPHOCYTE [1]: 13323 CELLS/uL
- ABSOLUTE MONOCYTE [1]: 251.67 CELLS/uL
- ABSOLUTE SEGMENTED NEUTROPHIL [1]: 848.33 CELLS/uL
- BASOPHIL [1]: 0%
- EOSINOPHIL [1]: 0.33%
- ERYTHROCYTE COUNT [1]: 6 x10E6/uL
- HEMATOCRIT [1]: 37.23%
- HEMOGLOBIN [1]: 13.77 G/DL
- LEUKOCYTE COUNT [1]: 14.47 x10E3/uL
- LYMPHOCYTE [1]: 92%
- MEAN CORPUSCULAR HEMOGLOBIN [1]: 22.97 pg
- MEAN CORPUSCULAR HEMOGLOBIN CONCENTRATION [1]: 36.97 G/DL
- MEAN CORPUSCULAR VOLUME [1]: 62.07 fL
- MONOCYTE [1]: 1.67%
- NEUTROPHIL [1]: 6%
- NUCLEATED RED BLOOD CELLS [1]: 0.67 /100WBC
- PLATELET COUNT [1]: 1218 x10E3/uL
- ALANINE AMINOTRANSFERASE [1]: 53.67 u/L
- ALBUMIN [1]: 4.3 G/DL
- ALKALINE PHOSPHATASE [1]: 358.33 u/L
- ASPARTATE AMINOTRANSFERASE [1]: 87 u/L
- BLOOD UREA NITROGEN [1]: 15 mg/dL
- CARBON DIOXIDE [1]: 26 mmol/L
- CHLORIDE [1]: 102.33 MEQ/L
- CHOLESTEROL [1]: 79.33 mg/dL
- CREATINE PHOSPHOKINASE [1]: 501.33 u/L
- CREATININE [1]: 0.29 mg/dL
- GLUCOSE [1]: 159.67 mg/dL
- LACTATE DEHYDROGENASE [1]: 166 u/L
- LIPASE [1]: 12 u/L
- PHOSPHORUS [1]: 12.7 mg/dL
- POTASSIUM [1]: 6.86 MEQ/L
- SODIUM [1]: 147.77 MEQ/L
- TOTAL BILIRUBIN [1]: 0.2 mg/dL
- TOTAL PROTEIN [1]: 6.23 G/DL
- URIC ACID [1]: 1.63 mg/dL
- ABSOLUTE BASOPHIL [2]: 0 CELLS/uL
- ABSOLUTE EOSINOPHIL [2]: 120.33 CELLS/uL
- ABSOLUTE LYMPHOCYTE [2]: 14708 CELLS/uL
- ABSOLUTE MONOCYTE [2]: 625.67 CELLS/uL
- ABSOLUTE SEGMENTED NEUTROPHIL [2]: 879.33 CELLS/uL
- BASOPHIL [2]: 0%
- EOSINOPHIL [2]: 0.67%
- ERYTHROCYTE COUNT [2]: 5.55 x10E6/uL
- HEMATOCRIT [2]: 36.7%
- HEMOGLOBIN [2]: 13.53 G/DL
- LEUKOCYTE COUNT [2]: 16.33 x10E3/uL
- LYMPHOCYTE [2]: 90.33%
- MEAN CORPUSCULAR HEMOGLOBIN [2]: 24.4 pg
- MEAN CORPUSCULAR HEMOGLOBIN CONCENTRATION [2]: 36.9 G/DL
- MEAN CORPUSCULAR VOLUME [2]: 66.07 fL
- MONOCYTE [2]: 3.67%
- NEUTROPHIL [2]: 5.33%
- NUCLEATED RED BLOOD CELLS [2]: 0 /100WBC
- PLATELET COUNT [2]: 1137 x10E3/uL
- ALANINE AMINOTRANSFERASE [2]: 56.67 u/L
- ALBUMIN [2]: 4.33 G/DL
- ALKALINE PHOSPHATASE [2]: 375 u/L
- ASPARTATE AMINOTRANSFERASE [2]: 83.67 u/L
- BLOOD UREA NITROGEN [2]: 15.33 mg/dL
- CARBON DIOXIDE [2]: 22.67 mmol/L
- CHLORIDE [2]: 102.67 MEQ/L
- CHOLESTEROL [2]: 87.33 mg/dL
- CREATINE PHOSPHOKINASE [2]: 282.67 u/L
- CREATININE [2]: 0.27 mg/dL
- GLUCOSE [2]: 153.67 mg/dL
- LACTATE DEHYDROGENASE [2]: 140.67 u/L
- LIPASE [2]: 11 u/L
- PHOSPHORUS [2]: 11.4 mg/dL
- POTASSIUM [2]: 6.06 MEQ/L
- SODIUM [2]: 146.67 MEQ/L
- TOTAL BILIRUBIN [2]: 0.3 mg/dL
- TOTAL PROTEIN [2]: 6.4 G/DL
- URIC ACID [2]: 1.07 mg/dL
- ABSOLUTE BASOPHIL [3]: 0 CELLS/uL
- ABSOLUTE EOSINOPHIL [3]: 65.67 CELLS/uL
- ABSOLUTE LYMPHOCYTE [3]: 13484.33 CELLS/uL
- ABSOLUTE MONOCYTE [3]: 234.33 CELLS/uL
- ABSOLUTE SEGMENTED NEUTROPHIL [3]: 1215.67 CELLS/uL
- BASOPHIL [3]: 0%
- EOSINOPHIL [3]: 0.33%
- ERYTHROCYTE COUNT [3]: 5.37 x10E6/uL
- HEMATOCRIT [3]: 34.63%
- HEMOGLOBIN [3]: 12.87 G/DL
- LEUKOCYTE COUNT [3]: 15 x10E3/uL
- LYMPHOCYTE [3]: 90%
- MEAN CORPUSCULAR HEMOGLOBIN [3]: 23.93 pg
- MEAN CORPUSCULAR HEMOGLOBIN CONCENTRATION [3]: 37.17 G/DL
- MEAN CORPUSCULAR VOLUME [3]: 64.43 fL
- MONOCYTE [3]: 1.67%
- NEUTROPHIL [3]: 8%
- NUCLEATED RED BLOOD CELLS [3]: 0 /100WBC
- PLATELET COUNT [3]: 960.33 x10E3/uL
- ALANINE AMINOTRANSFERASE [3]: 55.33 u/L
- ALBUMIN [3]: 4.07 G/DL
- ALKALINE PHOSPHATASE [3]: 330.67 u/L
- ASPARTATE AMINOTRANSFERASE [3]: 74.33 u/L
- BLOOD UREA NITROGEN [3]: 17.33 mg/dL
- CARBON DIOXIDE [3]: 25.67 mmol/L
- CHLORIDE [3]: 102 MEQ/L
- CHOLESTEROL [3]: 76 mg/dL
- CREATINE PHOSPHOKINASE [3]: 342.67 u/L
- CREATININE [3]: 0.21 mg/dL
- GLUCOSE [3]: 165.33 mg/dL
- LACTATE DEHYDROGENASE [3]: 152.67 u/L
- LIPASE [3]: 9.67 u/L
- PHOSPHORUS [3]: 12.4 mg/dL
- POTASSIUM [3]: 6.83 MEQ/L
- SODIUM [3]: 143.67 MEQ/L
- TOTAL BILIRUBIN [3]: 0.13 mg/dL
- TOTAL PROTEIN [3]: 6.23 G/DL
- URIC ACID [3]: 1.8 mg/dL
- ABSOLUTE BASOPHIL [4]: 0 CELLS/uL
- ABSOLUTE EOSINOPHIL [4]: 0 CELLS/uL
- ABSOLUTE LYMPHOCYTE [4]: 18795 CELLS/uL
- ABSOLUTE MONOCYTE [4]: 498.33 CELLS/uL
- ABSOLUTE SEGMENTED NEUTROPHIL [4]: 1040 CELLS/uL
- BASOPHIL [4]: 0%
- EOSINOPHIL [4]: 0%
- ERYTHROCYTE COUNT [4]: 5.72 x10E6/uL
- HEMATOCRIT [4]: 34.77%
- HEMOGLOBIN [4]: 13.27 G/DL
- LEUKOCYTE COUNT [4]: 20.33 x10E3/uL
- LYMPHOCYTE [4]: 92.33%
- MEAN CORPUSCULAR HEMOGLOBIN [4]: 23.2 pg
- MEAN CORPUSCULAR HEMOGLOBIN CONCENTRATION [4]: 38.2 G/DL
- MEAN CORPUSCULAR VOLUME [4]: 60.87 fL
- MONOCYTE [4]: 2.67%
- NEUTROPHIL [4]: 5%
- NUCLEATED RED BLOOD CELLS [4]: 0 /100WBC
- PLATELET COUNT [4]: 1209.33 x10E3/uL
- ALANINE AMINOTRANSFERASE [4]: 54.33 u/L
- ALBUMIN [4]: 4.23 G/DL
- ALKALINE PHOSPHATASE [4]: 290 u/L
- ASPARTATE AMINOTRANSFERASE [4]: 83.67 u/L
- BLOOD UREA NITROGEN [4]: 19.33 mg/dL
- CARBON DIOXIDE [4]: 24.33 mmol/L
- CHLORIDE [4]: 105.67 MEQ/L
- CHOLESTEROL [4]: 75.33 mg/dL
- CREATINE PHOSPHOKINASE [4]: 517 u/L
- CREATININE [4]: 0.21 mg/dL
- GLUCOSE [4]: 155 mg/dL
- LACTATE DEHYDROGENASE [4]: 338.33 u/L
- LIPASE [4]: 9.67 u/L
- PHOSPHORUS [4]: 12.17 mg/dL
- POTASSIUM [4]: 7.45 MEQ/L
- SODIUM [4]: 147 MEQ/L
- TOTAL BILIRUBIN [4]: 0.17 mg/dL
- TOTAL PROTEIN [4]: 6.23 G/DL
- URIC ACID [4]: 2.07 mg/dL
